Measured values reported in article PMC10013565 (Journal of Enzyme Inhibition and Medicinal Chemistry, 2023).

Key:
hCA I = hCA I (Homo sapiens, UniProt P00915); experiment: stopped-flow CO2 hydrase assay, hCA I; type: biochemical
hCA II = hCA II (Homo sapiens, UniProt P00918); experiment: stopped-flow CO2 hydrase assay, hCA II; type: biochemical
hCA IX = hCA IX (Homo sapiens, UniProt Q16790); experiment: biochemical
hCA XII = hCA XII (Homo sapiens, UniProt O43570); experiment: stopped-flow CO2 hydrase assay, hCA XII; type: biochemical
Sequence of hCA XII (O43570 25-354): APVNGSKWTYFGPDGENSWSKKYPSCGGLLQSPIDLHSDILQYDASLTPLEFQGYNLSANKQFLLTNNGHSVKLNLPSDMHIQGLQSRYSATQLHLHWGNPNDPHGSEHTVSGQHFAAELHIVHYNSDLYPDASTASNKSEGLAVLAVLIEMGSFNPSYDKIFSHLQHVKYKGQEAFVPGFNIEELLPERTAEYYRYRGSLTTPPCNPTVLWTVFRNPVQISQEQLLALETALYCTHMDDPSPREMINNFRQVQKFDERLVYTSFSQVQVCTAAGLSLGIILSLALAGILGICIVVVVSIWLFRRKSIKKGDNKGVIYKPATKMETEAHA

Sequence of hCA I (P00915 whole entry): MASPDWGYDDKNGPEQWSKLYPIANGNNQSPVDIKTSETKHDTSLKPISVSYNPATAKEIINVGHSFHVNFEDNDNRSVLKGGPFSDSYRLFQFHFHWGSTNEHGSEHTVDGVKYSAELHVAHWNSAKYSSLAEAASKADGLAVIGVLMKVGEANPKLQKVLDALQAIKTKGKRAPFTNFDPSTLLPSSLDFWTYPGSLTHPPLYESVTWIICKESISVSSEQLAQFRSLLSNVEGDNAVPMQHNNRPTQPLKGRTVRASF

Ki (hCA I) [µM] | Ki (hCA II) [µM] | Ki (hCA IX) [µM] | Ki (hCA XII) [µM] | Structure (SMILES)
> 100 | > 100 | 9.2 | 8 | O=C(c1cc2ccccc2oc1=O)N1CCN(C(=S)Nc2ccc(Cl)cc2)CC1 [7b, N-(4-chlorophenyl)-4–(2-oxo-2H-chromene-3-carbonyl)piperazine-1-carbothioamide]
> 100 | > 100 | 37.8 | 26.1 | CCS(=O)(=O)N1CCN(C(=O)c2cc3ccccc3oc2=O)CC1 [6e, 3–(4-(Ethylsulfonyl)piperazine-1-carbonyl)-2H-chromen-2-one]
> 100 | > 100 | > 100 | 92.2 | O=C(c1c(O)c2ccccc2oc1=O)N1CCN(S(=O)(=O)c2ccc(F)cc2)CC1 [16a, 3–(4-((4-Fluorophenyl)sulphonyl)piperazine-1-carbonyl)-4-hydroxy-2H-chromen-2-one]
> 100 | > 100 |  | 31.8 | O=C(c1cc2ccccc2oc1=O)N1CCN(C(=S)Nc2ccccc2)CC1 [7c, 4–(2-Oxo-2H-chromene-3-carbonyl)-N-phenylpiperazine-1-carbothioamide]
> 100 | > 100 | 7.1 | 9.1 | O=C(c1cc2ccccc2oc1=O)N1CCN(S(=O)(=O)c2ccc([N+](=O)[O-])cc2)CC1 [6a, 3–(4-((4-Nitrophenyl)sulphonyl)piperazine-1-carbonyl)-2H-chromen-2-one]
> 100 | > 100 | 8.9 | 9.4 | C/C(=N\OCc1ccc(Cl)cc1)c1cc2ccccc2oc1=O [20b, (E)-3–(1-(((4-chlorobenzyl)oxy)imino)ethyl)-2H-chromen-2-one]
> 100 | > 100 | 90.9 | 9.5 | O=C(c1c(O)c2ccccc2oc1=O)N1CCN(S(=O)(=O)c2ccccc2)CC1 [16b, 4-Hydroxy-3–(4-(phenylsulfonyl)piperazine-1-carbonyl)-2H-chromen-2-one]
> 100 | > 100 |  | 66.7 | O=C(c1cc2ccccc2oc1=O)N1CCN(S(=O)(=O)c2cccs2)CC1 [6c, 3–(4-(Thiophen-2-ylsulfonyl)piperazine-1-carbonyl)-2H-chromen-2-one]
> 100 | > 100 | > 100 | 36.5 | O=C(c1c(O)c2ccccc2oc1=O)N1CCN(S(=O)(=O)c2ccc(Br)s2)CC1 [16c, 3–(4-((5-Bromothiophen-2-yl)sulphonyl)piperazine-1-carbonyl)-4-hydroxy-2H-chromene-2-one]
> 100 | > 100 | 50.7 | > 100 | O=C(c1cc2ccc(O)cc2oc1=O)N1CCN(S(=O)(=O)c2ccc(Br)s2)CC1 [12c, 3–(4-((5-Bromothiophen-2-yl)sulphonyl)piperazine-1-carbonyl)-7-hydroxy-2H-chromen-2-one]
> 100 | > 100 | > 100 | 9.3 | O=C(c1cc2ccc(O)cc2oc1=O)N1CCN(S(=O)(=O)c2ccccc2)CC1 [12b, 7-Hydroxy-3–(4-(phenylsulfonyl)piperazine-1-carbonyl)-2H-chromen-2-one]
> 100 | > 100 | > 100 | 86.6 | O=C(c1cc2ccc(O)cc2oc1=O)N1CCN(S(=O)(=O)c2ccc(F)cc2)CC1 [12a, 3–(4-((4-Fluorophenyl)sulphonyl)piperazine-1-carbonyl)-7-hydroxy-2H-chromen-2-one]
> 100 | > 100 | 72 | 47.8 | O=C(c1cc2ccccc2oc1=O)N1CCN(C(=S)Nc2ccccc2Cl)CC1 [7a, N-(2-chlorophenyl)-4–(2-oxo-2H-chromene-3-carbonyl)piperazine-1-carbothioamide]
> 100 | > 100 | 5.56 | 9.8 | O=C(c1cc2ccccc2oc1=O)N1CCN(S(=O)(=O)c2ccc(Br)s2)CC1 [6d, 3–(4-((5-Bromothiophen-2-yl)sulphonyl)piperazine-1-carbonyl)-2H-chromen-2-one]
> 100 | > 100 | 62.1 |  | C/C(=N\OCc1ccc(F)cc1)c1cc2ccccc2oc1=O [20a, (E)-3–(1-(((4-fluorobenzyl)oxy)imino)ethyl)-2H-chromen-2-one]
